Test results: article PMC6272646, “Understanding the Physicochemical Properties of Mitragynine, a Principal Alkaloid of Mitragyna speciosa, for Preclinical Evaluation” (Molecules, 2015)
Where two headings read alike, the source gives them in different places.

Assays:
[1] = Stability in buffers pH 4, 7, 9 (percentage recovered); format: physicochemical; settings: for percentage recovered: 20 µg/mL
Method: (§1) The HPLC system consisted of a Jasco delivery pump (Tokyo, Japan) equipped with autosampler connected to a Waters 2487 detector (Milford, MA, USA) coupled to Jasco Chromnav software (Version 2.0, Tokyo, Japan). Chromatographic separation was performed on a C8 Agilent Eclipse plus (4.6 mm i.d. × 250 mm, 5-μm particle size; Apple Valley, MN, USA). The HPLC-UV method was adapted from our previous study and revalidated for the present HPLC system. The method was employed to quantify mitragynine in partition coefficient, stability, dissolution and solubility studies.
For solubility studies, an excess of mitragynine was added to 1.0 mL each of distilled water or buffers at pH 4, 7 and 9. The test tubes were placed in a water bath shaker at 37 degrees Celsius at 100 cycles/min for 48 h until equilibrium. The samples were centrifuged at 3000 rpm for 5 min and supernatant was taken for quantification of mitragynine by HPLC-UV. […] A 0.1 mL aliquot was collected from each buffer system at intervals of 0, 0.5, 6.0 and 24.0 h for determination of mitragynine. Mitragynine concentrations were expressed as percentage recovered. All experiments were performed in triplicates.

[2] = tested on: rodents; parameters: method as in PMID 4626477; settings: cited from earlier work
[3] = n-octanol/water partition coefficient (logP, logD); format: physicochemical; settings: for logD: read-out: Calculated n-octanol/water partition coefficient (logD)
Method: as §1
Lipophilicity of mitragynine was determined by n-octanol/water partition coefficient (P) using the method described by Low et al.. The distribution coefficient (log D) was determined in a similar manner to logP but instead of using water, buffers with a specific pH (4, 7, and 9) were used.

[4] = tested on: opiate receptor; parameters: method as in ref 29 = [29]; 29. Watanabe K. Yano S. Horie S. Yamamoto L.T. Takayama H. Aimi N. Sakai S. Ponglux D. Tongroach P. Shan J. Pharmacological properties of some structurally related indole alkaloids contained in the As; settings: cited from earlier work
[5] = Stability in simulated intestinal fluid (SIF, with enzymes); settings: for Concentration Found in SIF: SIF pH 6.8 with pancreatin
[6] = tested on: rats; parameters: method as in PMID 25262913; settings: cited from earlier work

CC[C@@H]1CN2CCc3c([nH]c4cccc(OC)c34)[C@@H]2C[C@@H]1/C(=C\OC)C(=O)OC [mitragynine]
stability in buffer (in words) ([1]; pH 4): appears to degrade over time
percentage recovered ([1]; pH 4 buffer, 0.5 h): 100.6 ± 0.3%
percentage recovered ([1]; pH 4 buffer, 6 h): 91.8 ± 1.0%
percentage recovered ([1]; pH 4 buffer, 24 h): 88.8 ± 1.4%
stability in buffer (in words) ([1]; pH 7 and 9, 24 h): stable
percentage recovered ([1]; pH 7 buffer, 0.5 h): 99.2 ± 0.4%
percentage recovered ([1]; pH 7 buffer, 6 h): 96.1 ± 1.9%
percentage recovered ([1]; pH 7 buffer, 24 h): 101.9 ± 0.9%
percentage recovered ([1]; pH 9 buffer, 0.5 h): 101.3 ± 2.6%
percentage recovered ([1]; pH 9 buffer, 6 h): 97.8 ± 0.3%
percentage recovered ([1]; pH 9 buffer, 24 h): 95.5 ± 2.5%
dose levels with no toxicity [2]: 800 to 900 mg/kg
logD ([3]; n-octanol/buffer pH 4, pH 4): 0.78
logD ([3]; n-octanol/buffer pH 7, pH 7): 1.73
logD ([3]; n-octanol/buffer pH 9, pH 9): 1.56
logP ([3]; n-octanol/water, read-out: Calculated n-octanol/water partition coefficient (logP)): 1.7
Mitragynine Content in buffer layer ([3]; octanol / buffer pH 4): 2.98 µg/mL
Mitragynine Content in octanol layer ([3]; octanol / buffer pH 4): 17.97 µg/mL
Mitragynine Content in buffer layer ([3]; octanol / buffer pH 7): 0.38 µg/mL
Mitragynine Content in octanol layer ([3]; octanol / buffer pH 7): 20.54 µg/mL
Mitragynine Content in buffer layer ([3]; octanol / buffer pH 9): 0.51 µg/mL
Mitragynine Content in octanol layer ([3]; octanol / buffer pH 9): 18.45 µg/mL
Mitragynine Content in aqueous layer ([3]; octanol / water): 0.42 µg/mL
Mitragynine Content in octanol layer ([3]; octanol / water): 20.74 µg/mL
antinociceptive effect, potency compared with M. speciosa crude extract [4]: less potent than the M. speciosa crude extract
Concentration Found in SIF ([5]; 0 min, 37 °C): 6.70 ± 0.60 µg/mL
RD (relative difference vs time 0) in SIF ([5]; 10 min): −0.07%
Concentration Found in SIF ([5]; 10 min, 37 °C): 6.69 ± 0.63 µg/mL
Concentration Found in SIF ([5]; 20 min, 37 °C): 6.56 ± 0.67 µg/mL
RD (relative difference vs time 0) in SIF ([5]; 30 min): 4.43%
Concentration Found in SIF ([5]; 30 min, 37 °C): 6.99 ± 0.21 µg/mL
RD (relative difference vs time 0) in SIF ([5]; 40 min): 4.94%
Concentration Found in SIF ([5]; 40 min, 37 °C): 7.03 ± 0.13 µg/mL
RD (relative difference vs time 0) in SIF ([5]; 50 min): 3.49%
Concentration Found in SIF ([5]; 50 min, 37 °C): 6.93 ± 0.13 µg/mL
RD (relative difference vs time 0) in SIF ([5]; 60 min): 2.49%
Concentration Found in SIF ([5]; 60 min, 37 °C): 6.86 ± 0.01 µg/mL
RD (relative difference vs time 0) in SIF ([5]; 120 min): 1.31%
Concentration Found in SIF ([5]; 120 min, 37 °C): 6.78 ± 0.79 µg/mL
RD (relative difference vs time 0) in SIF ([5]; 180 min): 3.46%
Concentration Found in SIF ([5]; 180 min, 37 °C): 6.93 ± 0.77 µg/mL
stability in SIF (in words) ([5]; SIF pH 6.8, 3 h, 37 °C): considered stable
addictive potential effects ([6]; i.p. in Tween 80, high (30 mg/kg) and moderate (10 mg/kg) doses): observed
addictive potential effects ([6]; i.p. in Tween 80, mild (5 mg/kg) and low (1 mg/kg) doses): absent
